According to patent US20190150445A1, “SUBSTITUTED HALOGEN(THIO)ACYL COMPOUNDS” (priority 2016, published 2019):
Where two headings read alike, the source gives them in different places.

What was measured:
Nezara viridula = Nezara viridula spray test (solvent 52.5 parts acetone, 7 parts dimethylformamide); type: in vivo; conditions: in Hordeum vulgare, 96 h
Experimental: Nezara viridula—spray test
To produce a suitable preparation of active compound, 1 part by weight of active compound is mixed with the stated amount of solvent, and the concentrate is diluted with water, containing an emulsifier concentration of 1000 ppm, to the desired concentration Ammonium salt and/or penetration enhancer in a dosage of 1000 ppm are added to the desired concentration if necessary.
Barley plants (Hordeum vulgare) infested with larvae of the southern green stink bug (Nezara viridula) are sprayed with a test solution containing the desired concentration of the active ingredient.
After 4 days mortality in % is determined. 100% means all the stink bugs have been killed; 0% means none of the stink bugs have been killed.

Myzus persicae [1] = assay: Myzus persicae spray test; type: in vivo; conditions: in Brassica rapa, foliar
Experimental: Myzus persicae—spray test
(§1) To produce a suitable preparation of active compound, 1 part by weight of active compound is mixed with the stated amount of solvents and is diluted with water, containing an emulsifier concentration of 1000 ppm, to the desired concentration. Further test concentrations are prepared by dilution with emulsifier containing water.
Chinese cabbage (Brassica pekinensis) leaf disks infected with all instars of the green peach aphid (Myzus persicae), are sprayed with a preparation of the active ingredient of the desired concentration.
After 5-6 days mortality in % is determined. 100% means all aphids have been killed and 0% means none of the aphids have been killed.

Diabrotica balteata = Diabrotica balteata spray test; type: in vivo; conditions: 160 gg/well, larvae on germinated wheat seeds, after 7 days
Experimental: Diabrotica balteata—spray test
Further test concentrations are prepared by dilution with emulsifier containing water.
Soaked wheat seeds (Trificum aestivum) are placed in a multiple well plate filled with agar and some water and are incubated for 1 day to germinate (5 seeds per well). The germinated wheat seeds are sprayed with a test solution containing the desired concentration of the active ingredient. Afterwards each unit is infected with 10-20 larvae of the banded cucumber beetle (Diabrofica balteata).
After 7 days efficacy in % is determined.

Musca domestica = Musca domestica test (MUSCDO); type: in vivo; conditions: 48 h
Experimental: Musca domestica—test (MUSCDO)
(§2) Solvent: dimethyl sulfoxide
To produce a suitable preparation of active compound, 10 mg of active compound are dissolved in 0.5 ml solvent, and the concentrate is diluted with water to the desired concentration.
10 adult house flies (Musca domestica) are transferred into a container, containing a sponge soaked with a mixture of sugar solution and compound solution of the desired concentration.
After 2 days mortality in % is determined. 100% means all the flies have been killed; 0% means none of the flies have been killed.

Nilaparvata lugens [2] = assay: Nilaparvata lugens spray test (solvent 52.5 parts acetone, 7 parts dimethylformamide); type: in vivo; conditions: in Oryza sativa, 96 h
Experimental: (§3) Nilaparvata Wens—spray test
To produce a suitable preparation of active compound, 1 part by weight of active compound is mixed with the stated amount of solvents and is diluted with water, containing an emulsifier concentration of 1000 ppm, to the desired concentration. Further test concentrations are prepared by dilution with emulsifier containing water Ammonium salt and/or penetration enhancer in a dosage of 1000 ppm are added to the desired concentration if necessary.
Rice plants (Oryza sativa) are treated by being sprayed with the desired concentration of the active compound and are infested with larvae of the brown planthopper (Nilaparvata lugens).
(§4) After 4 days mortality in % is determined. 100% means all planthoppers have been killed and 0% means none of the planthoppers have been killed.

LogP-Value (HCOOH) = type: physicochemical; conditions: for chromatographic logP: HCOOH (formic acid)
Ctenocephalides felis [3] = assay: Ctenocephalides felis in-vitro contact test, adult cat flea; type: in vivo; conditions: 5 μg/cm^2 (=500 g/ha), after 48 hours
Experimental: Ctenocephalides felis—in-vitro contact tests adult cat flea
9 mg compound is solved in 1 ml acetone and diluted with acetone to the desired concentration. 250 μl of the test solution is filled in 25ml glass test tubes and homogeneously distributed on the inner walls by rotation and tilting on a shaking device (2 h at 30 rpm). With a compound concentration of 900 ppm, an inner surface of 44,7 cm^2 and a homogeneous distribution, a dose of 5 μg/cm^2 is achieved.
After the solvent has evaporated, each test tube is filled with 5-10 adult cat fleas (Ctenocephalides felis), closed with a perforated lid and incubated in a lying position at room temperature and relative humidity. After 48 hours efficacy is determined. The fleas are patted on the ground of the tubes and are incubated on a heating plate at 45-50° C. for at most 5 minutes Immotile or uncoordinated moving fleas, which are not able to escape the heat by climbing upwards, are marked as dead or moribund.
An efficacy of 100% means all fleas are dead or moribund; 0% means no fleas are dead or moribund.

Lucilia cuprina = Lucilia cuprina test (LUCICU); type: in vivo; conditions: 48 h
Experimental: Lucilia cuprina—test (LUCICU)
as §2
10 mg active compound are dissolved in 0,5 ml Dimethylsulfoxid. Serial dilutions are made to obtain the desired rates.
Approximately 20 1st instar larvae of the Australian sheep blowfly (Lucilia cuprina) are transferred into a test tube containing minced horse meat and compound solution of the desired concentration.
After 2 days mortality in % is determined. 100% means all the larvae have been killed; 0% means none of the larvae have been killed.

Ctenocephalides felis [4] = assay: Ctenocephalides felis oral test (CTECFE); type: in vivo; conditions: 48 h, 100 ppm in cattle blood, adult unfed cat fleas, after 2 days
Experimental: Ctenocephalides felis—oral test (CTECFE)
as §2
To produce a suitable preparation of active compound, 10 mg of active compound are dissolved in 0.5 ml solvent, and the concentrate is diluted with cattle blood to the desired concentration.
Approximately 20 adult unfed cat fleas (Ctenocephalides felis) are placed in flea chambers. The blood chamber, sealed with parafilm on the bottom, are filled with cattle blood supplied with compound solution and placed on the gauze covered top of the flea chamber, so that the fleas are able to suck the blood. The blood chamber is heated to 37° C. whereas the flea chamber is kept at room temperature.
After 2 days mortality in % is determined. 100% means all the fleas have been killed; 0% means none of the fleas have been killed.

Myzus persicae [5] = assay: Myzus persicae oral test; type: in vivo; conditions: 120 h
Experimental: To produce a suitable preparation of active compound, 1 part by weight of active compound is mixed with the stated amount of solvent, and the concentrate is diluted with water to the desired concentration.
50 μl compound solution is filled in microtiter plates and 150 μl IPL41 insect medium (33% +15% sugar) is added to obtain a total volume of […] per well. Afterwards the plates are sealed with parafilm through which a mixed population of the green peach aphid (Myzus persicae) can suck on the compound preparation.
After 5 days mortality in % is determined. 100% means all aphids have been killed and 0% means none of the aphids have been killed.

Nilaparvata lugens [6] = assay: Nilaparvata lugens spray test (solvent 78.0 parts acetone, 1.5 parts dimethylformamide); type: in vivo; conditions: in Oryza sativa, 96 h
Experimental: as §3, §1
Rice plants (Oryza sativa) are sprayed with a preparation of the active ingredient of the desired concentration and the plants are infested with the brown planthopper (Nilaparvata lugens).
as §4

Phaedon cochleariae = Phaedon cochleariae spray test; type: in vivo; conditions: foliar, 168 h, larvae on Chinese cabbage leaf disks, after 7 days
Experimental: Phaedon cochleariae—spray test
as §1
Chinese cabbage (Brassica pekinensis) leaf disks are sprayed with a preparation of the active ingredient of the desired concentration. Once dry, the leaf disks are infested with mustard beetle larvae (Phaedon cochleariae).
After 7 days mortality in % is determined. 100% means all beetle larvae have been killed and 0% means none of the beetle larvae have been killed.

[7] = 100 ppm, 1st instar larvae, after 2 days, read-out: mortality

Compound: O=C(/C=C1\SCCN1Cc1cnc(Cl)c(F)c1)C(F)(F)F [Example I-1]
- mortality at 500 g/ha (Nezara viridula): 100%
- mortality at 100 g/ha (Myzus persicae [1]): 100%
- efficacy (seedlings grown up) (Diabrotica balteata): 100%
- mortality at 20 ppm (Musca domestica): 90%
- mortality at 500 g/ha (Nilaparvata lugens [2]): 100%
- LogP-Value (HCOOH) (LogP-Value (HCOOH)): 2,48
- chromatographic logP (LogP-Value (HCOOH)): 2.47
- efficacy (fleas dead or moribund) (Ctenocephalides felis [3]): 100%
- mortality at 100 ppm (Lucilia cuprina): 100%

Compound: O=C(/C=C1\NCCN1Cc1cnc(Cl)c(F)c1)C(F)(F)F [Example I-2, 3-[1-[(6-Chloro-5-fluoro-3-pyridinyl)methyl]-2-imidazolidinylidene]-1,1,1-trifluoro-2-propanone]
- mortality at 500 g/ha (Nezara viridula): 90%
- mortality at 100 g/ha (Myzus persicae [1]): 100%
- efficacy (seedlings grown up) (Diabrotica balteata): 100%
- mortality at 20 ppm (Musca domestica): 100%
- mortality at 500 g/ha (Nilaparvata lugens [2]): 100%
- chromatographic logP (LogP-Value (HCOOH)): 2.19
- efficacy (fleas dead or moribund) (Ctenocephalides felis [3]): 100%
- mortality at 100 ppm (Ctenocephalides felis [4]): 100%
- mortality at 100 ppm (Lucilia cuprina; [7]): 100%

Compound: Fc1cc(CN2CCS/C2=C\C(=S)C(F)(F)F)cnc1Cl [Example I-3, 3-[3-[(6-Chloro-5-fluoro-3-pyridinyl)methyl]-2-thiazolidinylidene]-1,1,1-trifluoro-2-propanthione]
- efficacy (seedlings grown up) (Diabrotica balteata): 100%
- mortality at 4 ppm (Myzus persicae [5]): 100%
- mortality at 20 ppm (Myzus persicae [5]): 100%
- mortality at 500 g/ha (Nilaparvata lugens [6]): 100%
- chromatographic logP (LogP-Value (HCOOH)): 1.2
- mortality at 100 ppm (Lucilia cuprina): 100%

Compound: Fc1cc(CN2CCN/C2=C\C(=S)C(F)(F)F)cnc1Cl [Example I-4, 3-[1-[(6-Chloro-5-fluoro-3-pyridinyl)methyl]-2-imidazolidinylidene]-1,1,1-trifluoro-2-propanthione]
- efficacy (seedlings grown up) (Diabrotica balteata): 100%
- mortality at 500 g/ha (Phaedon cochleariae): 83%
- mortality at 4 ppm (Myzus persicae [5]): 100%
- mortality at 500 g/ha (Nilaparvata lugens [6]): 100%
- LogP-Value (HCOOH) (LogP-Value (HCOOH)): 2,61
- chromatographic logP (LogP-Value (HCOOH)): 2.59
- efficacy (fleas dead or moribund) (Ctenocephalides felis [3]): 100%
- mortality at 100 ppm (Ctenocephalides felis [4]): 95%
- mortality at 100 ppm (Lucilia cuprina; [7]): 100%
